Test results taken from US20240207263A1, “SELECTIVE MODULATORS OF ATAXIA TELA[…] (ATM) KINASE AND USES THEREOF” (priority 2021, published 2024).

target: ATM (Homo sapiens (Human), UniProt Q13315); assay: biochemical; format: biochemical; settings: read-out: ATM IC50
From the text: Assay a): ATM Biochemical Potency
Data was collected by Caliper.

ATM, sequence (Q13315 whole entry, looked up): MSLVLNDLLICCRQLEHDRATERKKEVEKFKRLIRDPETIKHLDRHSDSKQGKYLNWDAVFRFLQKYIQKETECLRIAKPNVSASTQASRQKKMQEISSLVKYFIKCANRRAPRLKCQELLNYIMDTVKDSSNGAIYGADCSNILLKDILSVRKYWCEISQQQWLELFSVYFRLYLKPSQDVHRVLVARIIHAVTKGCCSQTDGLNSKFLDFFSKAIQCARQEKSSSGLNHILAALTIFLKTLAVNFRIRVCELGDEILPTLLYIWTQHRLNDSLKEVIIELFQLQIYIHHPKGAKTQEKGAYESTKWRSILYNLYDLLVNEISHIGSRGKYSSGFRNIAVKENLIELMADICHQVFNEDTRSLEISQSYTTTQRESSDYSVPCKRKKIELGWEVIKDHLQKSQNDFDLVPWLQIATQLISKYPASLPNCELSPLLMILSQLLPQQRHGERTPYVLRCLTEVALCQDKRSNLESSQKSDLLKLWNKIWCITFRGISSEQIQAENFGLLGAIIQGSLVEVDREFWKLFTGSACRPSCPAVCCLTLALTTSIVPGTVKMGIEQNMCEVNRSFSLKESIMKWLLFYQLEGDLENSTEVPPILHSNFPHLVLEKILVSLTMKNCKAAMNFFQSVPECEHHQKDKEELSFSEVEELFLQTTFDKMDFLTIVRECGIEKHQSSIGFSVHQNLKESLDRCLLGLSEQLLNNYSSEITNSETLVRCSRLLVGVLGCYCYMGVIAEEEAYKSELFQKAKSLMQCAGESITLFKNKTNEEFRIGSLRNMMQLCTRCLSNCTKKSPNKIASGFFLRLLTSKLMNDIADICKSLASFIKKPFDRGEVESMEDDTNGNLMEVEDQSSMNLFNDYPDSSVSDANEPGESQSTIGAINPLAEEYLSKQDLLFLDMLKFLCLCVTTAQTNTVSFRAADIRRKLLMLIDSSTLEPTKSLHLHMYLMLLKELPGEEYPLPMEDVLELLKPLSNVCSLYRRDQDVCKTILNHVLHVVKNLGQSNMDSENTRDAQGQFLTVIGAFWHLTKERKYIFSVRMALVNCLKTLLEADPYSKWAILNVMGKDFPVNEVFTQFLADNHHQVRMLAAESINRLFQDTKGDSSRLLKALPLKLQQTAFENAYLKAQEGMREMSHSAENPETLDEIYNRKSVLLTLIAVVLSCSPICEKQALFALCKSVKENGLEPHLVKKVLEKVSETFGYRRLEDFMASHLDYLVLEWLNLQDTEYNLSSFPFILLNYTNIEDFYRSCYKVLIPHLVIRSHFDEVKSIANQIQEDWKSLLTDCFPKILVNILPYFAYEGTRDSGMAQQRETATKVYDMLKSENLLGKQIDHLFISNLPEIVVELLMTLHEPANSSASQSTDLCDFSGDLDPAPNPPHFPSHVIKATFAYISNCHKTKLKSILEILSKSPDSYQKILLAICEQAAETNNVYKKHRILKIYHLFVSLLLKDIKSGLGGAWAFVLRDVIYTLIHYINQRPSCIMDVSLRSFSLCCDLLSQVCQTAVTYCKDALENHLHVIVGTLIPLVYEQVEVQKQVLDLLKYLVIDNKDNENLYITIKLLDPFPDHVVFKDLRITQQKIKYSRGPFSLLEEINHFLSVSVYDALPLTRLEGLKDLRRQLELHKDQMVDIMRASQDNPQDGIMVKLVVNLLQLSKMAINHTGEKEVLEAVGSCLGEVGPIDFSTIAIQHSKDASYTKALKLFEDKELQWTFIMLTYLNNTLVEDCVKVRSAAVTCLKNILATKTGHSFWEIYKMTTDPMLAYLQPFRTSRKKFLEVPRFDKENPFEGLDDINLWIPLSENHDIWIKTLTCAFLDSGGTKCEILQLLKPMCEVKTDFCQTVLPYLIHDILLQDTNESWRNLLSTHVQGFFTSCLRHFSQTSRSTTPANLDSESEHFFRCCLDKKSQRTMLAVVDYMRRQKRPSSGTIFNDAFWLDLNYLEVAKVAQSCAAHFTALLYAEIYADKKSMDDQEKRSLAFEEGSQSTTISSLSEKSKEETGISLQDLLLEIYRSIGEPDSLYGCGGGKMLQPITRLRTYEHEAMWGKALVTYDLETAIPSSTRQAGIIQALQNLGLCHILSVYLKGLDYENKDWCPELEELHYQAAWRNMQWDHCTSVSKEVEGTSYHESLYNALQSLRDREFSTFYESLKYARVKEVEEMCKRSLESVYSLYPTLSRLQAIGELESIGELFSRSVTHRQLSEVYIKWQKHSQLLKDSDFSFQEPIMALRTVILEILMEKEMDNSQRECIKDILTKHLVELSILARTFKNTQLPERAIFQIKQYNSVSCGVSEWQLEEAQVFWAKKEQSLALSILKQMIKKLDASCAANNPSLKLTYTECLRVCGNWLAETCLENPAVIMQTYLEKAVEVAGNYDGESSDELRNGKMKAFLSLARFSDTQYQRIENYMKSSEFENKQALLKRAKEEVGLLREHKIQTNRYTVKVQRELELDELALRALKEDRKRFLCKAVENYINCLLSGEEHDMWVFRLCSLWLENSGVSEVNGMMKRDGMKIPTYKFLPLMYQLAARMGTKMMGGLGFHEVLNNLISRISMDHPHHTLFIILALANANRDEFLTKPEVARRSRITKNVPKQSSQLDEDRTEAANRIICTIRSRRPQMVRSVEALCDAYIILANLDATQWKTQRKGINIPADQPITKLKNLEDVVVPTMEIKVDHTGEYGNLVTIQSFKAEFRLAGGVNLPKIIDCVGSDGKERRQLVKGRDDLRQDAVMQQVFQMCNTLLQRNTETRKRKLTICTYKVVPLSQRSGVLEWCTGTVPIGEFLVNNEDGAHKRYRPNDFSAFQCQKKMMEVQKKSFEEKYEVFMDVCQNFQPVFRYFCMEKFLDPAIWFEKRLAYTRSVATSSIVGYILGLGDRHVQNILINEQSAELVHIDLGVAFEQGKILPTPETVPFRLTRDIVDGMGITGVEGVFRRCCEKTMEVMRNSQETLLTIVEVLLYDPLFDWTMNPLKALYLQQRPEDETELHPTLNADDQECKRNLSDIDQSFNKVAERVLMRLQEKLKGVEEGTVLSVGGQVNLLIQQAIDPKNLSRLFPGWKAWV

SMILES | IC50 [nM]
CC(OCCN1CC2C(C1)C2(F)F)c1ccc(-c2ccc3nnc4c(c3c2)n(C(C)C)c(=O)n4C)cn1 (stereo in doubt) [Example 70, 8-(6-((1S)-1-(2-(6,6-difluoro-3-azabicyclo[3.1.0]hexan-3-yl)ethoxy)ethyl)pyridin-3-yl)-1-isopropyl-3-methyl-1H-imidazo[4,5-c]cinnolin-2(3H)-one] | 295
CC(OCCN1CC2C(C1)C2(F)F)c1ccc(-c2ccc3nnc4c(c3c2)n(C(C)C)c(=O)n4C)cn1 (stereo in doubt) [Example 71, 8-(6-((1R)-1-(2-(6,6-difluoro-3-azabicyclo[3.1.0]hexan-3-yl)ethoxy)ethyl)pyridin-3-yl)-1-isopropyl-3-methyl-1H-imidazo[4,5-c]cinnolin-2(3H)-one] | 9.3
CC(C)n1c(=O)n(C)c2nnc3ccc(-c4ccc(COCCN(C)C)nc4)cc3c21 [Example 2, 8-(6-((2-(dimethylamino)ethoxy)meth-yl)pyridin-3-yl)-1-isopropyl-3-methyl-1H-imidazo[4,5-c]cinnolin-2(3H)-one] | 53
CC(C)n1c(=O)n(C)c2nnc3ccc(-c4ccc(COCCN5CCCCC5)nc4)cc3c21 [Example 3, 1-isopropyl-3-methyl-8-(6-((2-(piperidin-1-yl)ethoxy)methyl)pyridin-3-yl)-1H-imidazo[4,5-c]cinnolin-2(3H)-one] | 36
CC(C)n1c(=O)n(C)c2nnc3ccc(-c4ccc(COCCN5CCCC5)nc4)cc3c21 [Example 4, 1-isopropyl-3-methyl-8-(6-((2-(pyrrolidin-1-yl)ethoxy)methyl)pyridin-3-yl)-1H-imidazo[4,5-c]cinnolin-2(3H)-one] | 63
COCCOCc1ccc(-c2ccc3nnc4c(c3c2)n(C(C)C)c(=O)n4C)cn1 [Example 6, 1-isopropyl-8-(6-((2-methoxyethoxy)methyl)py-ridin-3-yl)-3-methyl-1H-imidazo[4,5-c]cinnolin-2(3H)-one] | 469
CC(C)n1c(=O)n(C)c2nnc3ccc(-c4ccc(COC5CCN(C)CC5)nc4)cc3c21 [Example 7, 1-isopropyl-3-methyl-8-(6-(((1-methylpiperidin-4-yl)oxy)methyl)pyridin-3-yl)-1H-imidazo[4,5-c]cinnolin-2(3H)-one] | 227
CC(C)n1c(=O)n(C)c2nnc3ccc(-c4ccc(COCCCN(C)C)nc4)cc3c21 [Example 8, 8-(6-((3-(dimethylamino)propoxy)methyl)pyridin-3-yl)-1-isopropyl-3-methyl-1H-imidazo[4,5-c]cinnolin-2(3H)-one] | 98
CC(C)n1c(=O)n(C)c2nnc3ccc(-c4ccc(COCC5CCN(C)CC5)nc4)cc3c21 [Example 9, 1-isopropyl-3-methyl-8-(6-(((1-methylpiperidin-4-yl)methoxy)methyl)pyridin-3-yl)-1H-imidazo[4,5-c]cinnolin-2(3H)-one] | 180
CC(C)n1c(=O)n(C)c2nnc3ccc(-c4ccc(COCC5CCCN5C)nc4)cc3c21 (centres unmarked) [Example 10, 1-isopropyl-3-methyl-8-(6-(((1-methylpyrrolidin-2-yl)methoxy)methyl)pyridin-3-yl)-1H-imidazo[4,5-c]cinnolin-2(3H)-one] | 105
CC(C)n1c(=O)n(C)c2nnc3ccc(-c4ccc(COC5CCN(C)C5)nc4)cc3c21 (centres unmarked) [Example 11, 1-isopropyl-3-methyl-8-(6-(((1-methylpyrrolidin-3-yl)oxy)methyl)pyridin-3-yl)-1H-imidazo[4,5-c]cinnolin-2(3H)-one] | 123
CC(C)n1c(=O)n(C)c2nnc3ccc(-c4ccc(COCCCN5CC6CC6C5)nc4)cc3c21 (centres unmarked) [Example 12, 8-(6-((3-(3-azabicyclo[3.1.0]hexan-3-yl)propoxy)methyl)pyridin-3-yl)-1-isopropyl-3-methyl-1H-imidazo[4,5-c]cinnolin-2(3H)-one] | 47
CC(C)n1c(=O)n(C)c2nnc3ccc(-c4ccc(COC5CCCN(C)C5)nc4)cc3c21 (centres unmarked) [Example 13, 1-isopropyl-3-methyl-8-(6-(((1-methylpiperidin-3-yl)oxy)methyl)pyridin-3-yl)-1H-imidazo[4,5-c]cinnolin-2(3H)-one] | 144
CC(C)n1c(=O)n(C)c2nnc3ccc(-c4ccc(COC5CC(N(C)C)C5)nc4)cc3c21 (centres unmarked) [Example 14, 8-(6-((3-(dimethylamino)cyclobuto-xy)methyl)pyridin-3-yl)-1-isopropyl-3-methyl-1H-imidazo[4,5-c]cinnolin-2(3H)-one] | 68
CC(C)n1c(=O)n(C)c2nnc3ccc(-c4ccc(COC5CN(C)C5)nc4)cc3c21 [Example 15, 1-isopropyl-3-methyl-8-(6-(((1-methylazetidin-3-yl)oxy)methyl)pyridin-3-yl)-1H-imidazo[4,5-c]cinnolin-2(3H)-one] | 134
CC(COCc1ccc(-c2ccc3nnc4c(c3c2)n(C(C)C)c(=O)n4C)cn1)N1CC2CC2C1 (centres unmarked) [Example 16, 8-(6-((2-(3-azabicyclo[3.1.0]hexan-3-yl)propoxy)methyl)pyridin-3-yl)-1-isopropyl-3-methyl-1H-imidazo[4,5-c]cinnolin-2(3H)-one] | 201
CC(C)n1c(=O)n(C)c2nnc3ccc(-c4ccc(COCC(C)(C)N5CC6CC6C5)nc4)cc3c21 (centres unmarked) [Example 17, 8-(6-((2-(3-azabicyclo[3.1.0]hexan-3-yl)-2-methylpropoxy)methyl)pyridin-3-yl)-1-isopropyl-3-methyl-1H-imidazo[4,5-c]cinnolin-2(3H)-one] | 464
CC(C)n1c(=O)n(C)c2nnc3ccc(-c4ccc(COCC5(N6CC7CC7C6)CC5)nc4)cc3c21 (centres unmarked) [Example 18, 8-(6-(((1-(3-azabicyclo[3.1.0]hexan-3-yl)cyclopropyl)methoxy)methyl)pyridin-3-yl)-1-isopropyl-3-methyl-1H-imidazo[4,5-c]cinnolin-2(3H)-one] | 377
CC(C)n1c(=O)n(C)c2nnc3ccc(-c4ccc(COCC5CCCN(C)C5)nc4)cc3c21 (centres unmarked) [Example 19, 1-isopropyl-3-methyl-8-(6-(((1-methylpiperidin-3-yl)methoxy)methyl)pyridin-3-yl)-1H-imidazo[4,5-c]cinnolin-2(3H)-one] | 99
CC(C)n1c(=O)n(C)c2nnc3ccc(-c4ccc(COCC5CCN(C)C5)nc4)cc3c21 (centres unmarked) [Example 20, 1-isopropyl-3-methyl-8-(6-(((1-methylpyrrolidin-3-yl)methoxy)methyl)pyridin-3-yl)-1H-imidazo[4,5-c]cinnolin-2(3H)-one] | 51
CC(CN1CC2CC2C1)OCc1ccc(-c2ccc3nnc4c(c3c2)n(C(C)C)c(=O)n4C)cn1 (centres unmarked) [Example 21, 8-(6-(((1-(3-azabicyclo[3.1.0]hexan-3-yl)propan-2-yl)oxy)methyl)pyridin-3-yl)-1-isopropyl-3-methyl-1H-imidazo[4,5-c]cinnolin-2(3H)-one] | 139
CC(C)n1c(=O)n(C)c2nnc3ccc(-c4ccc(COC5(CN6CC7CC7C6)CC5)nc4)cc3c21 (centres unmarked) [Example 23, 8-(6-((1-(3-azabicyclo[3.1.0]hexan-3-ylmethyl)cyclopropoxy)methyl)pyridin-3-yl)-1-isopropyl-3-methyl-1H-imidazo[4,5-c]cinnolin-2(3H)-one] | 420
CC(C)n1c(=O)n(C)c2nnc3ccc(-c4ccc(COCCN5CCC(C#N)CC5)nc4)cc3c21 [Example 24, 1-(2-((5-(1-isopropyl-3-methyl-2-oxo-2,3-dihydro-1H-imidazo[4,5-c]cinnolin-8-yl)pyridin-2-yl)methoxy)ethyl)pyiperidine-4-carbonitrile] | 26
